Source: US10864192B2, “Compositions and methods for inhibiting brain trauma-induced neurodegeneration and related conditions” (priority 2016, dated 2020)

Columns and labels:
[1] = Plasma concentrations of phenserine and its metabolites in beagle dog plasma; assay type: in vivo
[2] = in vivo
[3] = Lipophilicity (Log D); assay type: physicochemical
[4] = Plasma concentrations of phenserine and its metabolites in human plasma; assay type: in vivo
Experimental: The relationship between pharmacokinetic and pharmacodynamics evaluated in FIG. 15 was evaluated in aged volunteers. A total of 32 subjects (60-80 years of age, 11 males/21 females) were screened and enrolled. All participants provided informed consent, the conduct of the study were approved and overseen by the local Review IRB.
For pharmacokinetic (blood concentrations of primary drug and select metabolites) a dose […] additionally was evaluated.
These were centrifuged within 15 min of collection, and stored in a freezer at −70° C. freezer in marked polypropylene tubes until analysis. Phenserine levels were quantified by liquid chromatography/mass spectrometry (LC/MS/MS). In brief, analyses were undertaken on Perkin-Elmer (PE, Norwalk, USA) high performance liquid chromatographic (HPLC) instrumentation. Compound separation was performed on a Phenomenex LUNA C18 column (5 μM, 2.0 mm×150 mm; Torrance, USA), with a Phenomenex guard column (2 mm×30 mm). The mobile phase was 60% acetonitrile (HPLC grade) plus 40% ammonium acetate (v/v) with a flow rate of 0.4 mL/min. […] Thereafter, 2 mL of tert-butyl methyl ether was added and the sample was mixed and flash frozen. The organic layer was decanted, dried under a stream of nitrogen and reconstituted into 250 μL of mobile phase. Of this, a 60 μL sample was then injected into the HPLC.

[5] = biological target: acetylcholinesterase (AChE) (Homo sapiens (Human), UniProt P22303); test: RBC AChE inhibition after oral phenserine in humans; assay type: in vivo; conditions: 15 mg immediate release dose, TMax (1 hr)
Sequence of acetylcholinesterase (AChE) (P22303 32-574 with tags or gaps limits assumed): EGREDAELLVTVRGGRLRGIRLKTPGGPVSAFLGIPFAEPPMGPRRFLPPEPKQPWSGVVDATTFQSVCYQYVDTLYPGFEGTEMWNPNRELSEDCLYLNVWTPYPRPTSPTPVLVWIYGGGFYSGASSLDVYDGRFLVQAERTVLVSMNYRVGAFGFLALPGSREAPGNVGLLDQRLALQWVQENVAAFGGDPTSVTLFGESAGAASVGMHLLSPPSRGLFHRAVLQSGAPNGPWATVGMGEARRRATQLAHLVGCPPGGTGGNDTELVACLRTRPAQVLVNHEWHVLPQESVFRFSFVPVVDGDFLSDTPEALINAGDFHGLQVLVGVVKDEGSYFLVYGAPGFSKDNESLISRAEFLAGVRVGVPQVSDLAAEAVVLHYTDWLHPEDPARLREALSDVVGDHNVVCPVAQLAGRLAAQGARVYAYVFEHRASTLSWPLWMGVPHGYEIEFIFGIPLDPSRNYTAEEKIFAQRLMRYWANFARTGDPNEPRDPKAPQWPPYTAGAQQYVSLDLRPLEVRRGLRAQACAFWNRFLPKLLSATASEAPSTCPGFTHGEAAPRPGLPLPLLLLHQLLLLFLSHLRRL
Experimental: For pharmacodynamics AChE inhibition analyses: erythrocyte AChE levels were evaluated in whole blood samples by using methods known in the art. Briefly, duplicate samples of freshly collected whole blood were analyzed. Cholinesterase activity, U/L, was detected at 37° C. using a differential pH procedure on a Eurochem CL-10 (Rome, Italy). The time-course of enzyme inhibition was determined for each subject by expressing each mean post-phenserine administration AChE concentration as a fraction of the mean pre-administration resting level of AChE within the same individual. This value was then subtracted from 1 and multiplied by 100% to provide percent AchE inhibition.

[6] = tested on: SH-SY5Y cells; test: H2O2-induced oxidative stress in SH-SY5Y cells (MTS assay); assay type: cell-based, human; conditions: phenserine 10 and 30 μM, 100 μM H2O2, 24 hr
[7] = tested on: Sprague-Dawley rats; test: Focal cerebral ischemia model (MCA ligation), pre-treatment; assay type: in vivo, rat
Experimental: (§1) Briefly, Human neuroblastoma SH-SY5Y cells were incubated in oxygen-glucose deprivation and hypoxia using serum- and glucose-free media and 95% N2 and 5% CO2 for 5 minutes. Adult male Sprague-Dawley rats (250 to 350 g weight) were anesthetized with chloral hydrate (0.4 g/kg, intraperitoneally) and right middle cerebral artery (MCA) was ligated for 60 minutes. The core body temperature of animals was maintained at 37° C. throughout the procedure.

[8] = tested on: SH-SY5Y cells; test: Oxygen-glucose deprivation/reperfusion (OGD/RP) damage on SH-SY5Y cells; assay type: cell-based, human
Experimental: as §1

[9] = biological target: amyloid precursor protein (APP) (Mus musculus (Mouse), UniProt P12023); test: Amyloid precursor protein in primary cortical neurons (Western blot); assay type: cell-based; conditions: 48 hr
Sequence of amyloid precursor protein (APP) (P12023 whole entry, looked up): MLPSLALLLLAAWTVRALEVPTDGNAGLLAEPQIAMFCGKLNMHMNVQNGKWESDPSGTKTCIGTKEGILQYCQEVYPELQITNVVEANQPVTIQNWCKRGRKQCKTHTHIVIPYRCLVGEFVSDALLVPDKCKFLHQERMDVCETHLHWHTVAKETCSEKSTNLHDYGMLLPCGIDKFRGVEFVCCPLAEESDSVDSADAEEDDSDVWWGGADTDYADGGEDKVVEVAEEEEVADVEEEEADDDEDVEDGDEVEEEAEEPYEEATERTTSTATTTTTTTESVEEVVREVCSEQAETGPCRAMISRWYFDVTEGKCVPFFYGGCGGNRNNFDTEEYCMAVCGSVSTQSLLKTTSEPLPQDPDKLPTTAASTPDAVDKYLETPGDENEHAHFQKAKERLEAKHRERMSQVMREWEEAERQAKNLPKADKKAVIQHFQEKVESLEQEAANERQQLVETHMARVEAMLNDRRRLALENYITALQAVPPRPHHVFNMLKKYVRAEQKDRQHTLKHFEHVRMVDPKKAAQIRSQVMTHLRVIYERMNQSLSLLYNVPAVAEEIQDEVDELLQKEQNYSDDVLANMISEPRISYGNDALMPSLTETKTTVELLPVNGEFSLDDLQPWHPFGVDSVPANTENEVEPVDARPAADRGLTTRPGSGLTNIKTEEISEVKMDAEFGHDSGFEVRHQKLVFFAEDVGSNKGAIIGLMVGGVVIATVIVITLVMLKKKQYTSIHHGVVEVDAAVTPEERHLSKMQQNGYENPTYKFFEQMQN
Experimental: Primary cortical neurons were harvested and isolated from mice, and then were cultured in line with methodologies known in the art. In brief, embryonic day 15-18 mouse pups were obtained from timed pregnant female mice (5 pups). Within a laminar flow cell culture hood, the brain was removed from these mouse pups and the meninges and blood vessels were carefully removed. […] Maintained on wet ice, individual cells were then isolated by titrating some 10 times to dissociate cells by use of using a glass pasture pipette with a fire polished tip. […]
Following maintenance in cell culture (>24 hr) primary cortical neurons were challenged to known concentrations of experimental drugs for 48 hr, or vehicle (culture media) alone. […] Quantification of select proteins, for example AAP was undertaken by Western Blotting using the APP N-terminal antibody (22C11) obtained from Chemicon (Temecula, Calif.). The housekeeping protein β-actin quantified in the same samples to allow normalization, and was probed with anti-β-actin (Chemicon). The Western blots were developed by using chemiluminescence (PIERCE), were visualized with a Phospholmager (BioRad, Hercules, Calif.), and resulting bands were quantified by QuantityOne software (BioRad).

[10] = tested on: SH-SY5Y cells; test: Cell proliferation of SH-SY5Y cells (MTS assay); assay type: cell-based, human; conditions: 30 uM, 24 hr
Experimental: SHSYSY cells were exposed for 24 hr to 30 uM concentration of (−)- and (+)-phenserine. After 24 hr cell proliferation was determined by MTS assay. *P,0.05, **p,0.01, and ***p,0.001 compared to control samples without drug.

[11] = tested on: acetyl- and butyrylcholinesterase; test: Cholinesterase inhibition in mice after the final dose; assay type: in vivo, mouse; conditions: 24 hours following the final dose
Source text: The same model of concussive head injury described above with respect to FIG. 7 was used in the experiments described below with respect to FIGS. 8 and 9. […] Previous studies of drug and metabolite concentrations have shown acetylcholinesterase inhibition to be present when any concentration of drug or metabolite have been detected. […] Drug and its metabolites have been shown undetectable when no anticholinesterase activities are present.

[12] = Tolerability of immediate release phenserine in patients; assay type: in vivo, human; conditions: immediate release dose of 20 mg
[13] = pre-treatment, brain and SH-SY5Y cells

## CN1CC[C@@]2(C)c3cc(OC(=O)Nc4ccccc4)ccc3N(C)[C@@H]12 [phenserine, (−)-phenylcarbamoyleseroline]
[1]; Hour 1
  Average Plasma Concentrations: 4.95 ng/mL
[1]; Hour 2
  Average Plasma Concentrations: 15.4 ng/mL
[1]; Hour 3
  Average Plasma Concentrations: 0.71 ng/mL
[1]; Hour 4
  Average Plasma Concentrations: 0.97 ng/mL
[2]
  Brain:Plasma Partitioning: 6.8-10:1
  brain:blood partition: approx. 8:1
[3]
  logD: 2.2
[4]; Hour 1
  Average Plasma Concentrations: 3.02 ng/mL
[4]; Hour 2
  Average Plasma Concentrations: 2.09 ng/mL
[4]; Hour 3
  Average Plasma Concentrations: 1.08 ng/mL
[4]; Hour 4
  Average Plasma Concentrations: 0.31 ng/mL
[5]
  AChE inhibition in RBCs: 34%
[6]
  H2O2-mediated neuronal toxicity (cell viability): significantly ameliorated
[7]; pre-treatment
  B-cell lymphoma 2 (Bcl-2) expression: increased
  body symmetry: improved
  brain-derived neurotrophic factor (BDNF) expression: increased
  cell death: reduced
  glial fibrillary acidic protein (GFAP) expression: decreased
[7]; pre-treatment twice daily prior to MCA occlusion
  brain infarction area: reduced
[7]; [13]
  activated-caspase 3 levels: decreased
  amyloid precursor protein (APP) expression: decreased
[8]
  matrix metallopeptidase 9 (MMP-9): reduced
[9]
  amyloid precursor protein level: inhibition of amyloid precursor protein
[10]
  cell proliferation (neurotrophic actions): increasing cellular proliferation
[11]
  inhibition of acetyl- and butyrylcholinesterase: no inhibition
[12]
  negative consequences in patients: negative consequences (e.g., vomiting, diarrhea, nausea, etc.) have been observed
